System: E. coli R182
Format: cell-based, Escherichia coli
Excerpt: We compared the combination of P1 CRISPR phage (targeting ftsA) and ciprofloxacin to the use of P1 CRISPR phage alone for killing E. coli R182, a ciprofloxacin-resistant strain (FIG. 10A). Ciprofloxacin (Cip) dose was the highest therapeutically relevant concentration (4 micrograms per milliliter) to which the R182 strain is known to be resistant. E. coli were infected with CRISPR phage targeting the E. coli ftsA gene at a range of multiplicities of infection (MOI).
In addition, the combination of P1 CRISPR phage (targeting ftsA) and imipenem, a standard of care antibiotic in E. coli infections, was compared with P1 CRISPR phage alone for killing E. coli R182, a ciprofloxacin-resistant strain (FIG. 10B). […] The E. coli cells were infected with CRISPR phage at a range of MOI.
Finally, we compared the loss of viable E. coli R182 cells following exposure to imipinem, P1 CRISPR phage targeting ftsA, or a combination of both (FIG. 10C). For relevant conditions (n=3 for each condition), imipenem was held at a constant dose (LD50 for E. coli R182) and CRISPR phage was held to a MOI of 2.

SMILES	CFU reduction (constant dose (the LD50 for E. coli R182), FIG. 10B) [log]	bacterial viability (ciprofloxacin alone, 4 micrograms per milliliter, FIG. 10A)
C[C@@H](O)[C@H]1C(=O)N2C(C(=O)O)=C(SCCN=CN)C[C@H]12 [Imipenem, imipenem]	0.3	–
O=C(O)c1cn(C2CC2)c2cc(N3CCNCC3)c(F)cc2c1=O [ciprofloxacin]	–	did not reduce bacterial viability
